Measurements published in patent publication US9914910B2, “Methods of preserving and protecting pancreatic beta cells and treating or preventing diabetes by inhibiting NOX-1” (Eastern Virginia Medical School, priority 2013, dated 2018).

Columns and labels:
[1] = test system: NOX-1 gene expression in beta cells; assay: Inflammatory cytokine-induced gene expression in beta cells; type: cell-based
Description: Inflammatory cytokines (PIC; IFNγ, TNFα, IL-1β)) induce expression of NOX-1 and MCP-1 in beta cells. Elevated NOX-1 is associated with beta cell dysfunction and NOX-1 expression is associated with feed-forward generation of reactive oxygen species. […] Shown are fold increase, *p<0.05.
Feed-forward activation of NOX-1 can also be reduced with siRNA. Inflammatory cytokines (PIC; IFNγ, TNFα, IL-1β) induce the gene expression of NOX-1 that is further regulated in a feed-forward manner involving reactive oxygen species generated by NOX-1.
Compounds that inhibit interleukin-12, interleukin-23 and/or STAT4 signaling disrupt NOX-1 upregulation by inflammatory cytokines.

beta cells [2] = assay: Static glucose-stimulated-insulin-secretion after PIC; type: cell-based; details: 100 nM, 3 mM vs 16 mM glucose
Protocol: Pyrazolopyridine dione compound class of dual selective NOX1/4 inhibitors were also evaluated on preservation of beta cell function and survival with concomitant exposure to inflammatory cytokines. Two NOX1/4 pyrazolopyridine dione compounds C1 and C2 (Methyl-2-phenyl-5-(2-pyridinylmethyl)-1H-pyrazolo[4,3-c]pyridine-3,6(2H,5H)-dione and 5-Benzyl-4-methyl-2-phenyl-1H-pyrazolo[4,3-c]pyridine-3,6(2H,5H)-dione, respectively) were assessed at 100 nM. […] Inflammatory cytokines (PIC; IFNγ, TNFα, IL-1β)) abolished this response. The glucose-stimulated-insulin-secretion response was preserved in the presence of inflammatory cytokines by pyrazolopyridine dione compounds C1 and C2. *p<0.05, **p<0.01.

[3] = mice, dosing 1000 mg/Kg per os; cited from earlier work
[4] = test system: MCP-1, IL-12p40, IL-12 p35, IFNγ gene expression in primary mouse islets; assay: Cytokine-induced target gene expression (real time PCR); type: cell-based; details: NCTT-1 100 nM, ML171 1 μM
Protocol: (§1) Total RNA was isolated using the RNeasy Mini Kit (Qiagen, Valencia, Calif.) and cDNA prepared using MMLV reverse transcriptase (Life Technologies) and random hexamers (Life Technologies). Jump Start Taq polymerase (Life Technologies) was used in PCR reactions. […] RT-PCR reactions were performed in triplicate (CFX96 Bio-Rad, Hercules, Calif.). Taqman primers (Life Technologies) were also used. Data was normalized to the housekeeping gene GAPDH and analyzed using the 2-ΔΔCT method.
Data is quantitative real time PCR gene expression analysis from triplicate experiments performed in replicate. Fold induction in gene expression over control (non cytokine-treated) islets is graphed.

[5] = test system: NOX-1 gene expression in primary mouse islets; assay: PIC-induced NOX-1 gene expression (RT-PCR); type: cell-based; details: NCTT-1 100 nM, ML171 1 μM
Description: Human donor islets were obtained from integrated islet distribution project (http://iidp.coh.org) and cultured in CMRL media (Mediatech, Manassas, Va.). Mouse islets were freshly isolated from 8-week old male C57BL/6J mice (Jackson Laboratory, Bar Harbor, Me.) by common bile duct cannulation and collagenase digestion. Islets were hand picked prior to use. […] Total RNA was isolated using the RNeasy Mini Kit (Qiagen, Valencia, Calif.) and cDNA prepared using MMLV reverse transcriptase (Life Technologies) and random hexamers (Life Technologies). Jump Start Taq polymerase (Life Technologies) was used in PCR reactions. Primers used with SYBR Green 1 (Molecular Probes, Carlsbad, Calif.) probes: […] GAPDH forward [NT] ID NO: 3); GAPDH reverse [NT] NO: 4). RT-PCR reactions were performed in triplicate (CFX96 Bio-Rad, Hercules, Calif.). Taqman primers (Life Technologies) were also used.

[6] = test system: MCP-1 expression in INS-1; assay: Cytokine-induced MCP-1 gene expression (real time PCR); type: cell-based, rat; details: INS-1, 10 nM
Protocol: as §1
Data is quantitative real time PCR gene expression analysis from triplicate experiments performed in replicate.

[7] = test system: interleukin-12 and interleukin-23 production; details: cited from earlier work
NOX-1 = target: T1, NOX-1 (Homo sapiens, UniProt Q9Y5S8); details: cited from earlier work
T1 sequence (Q9Y5S8 1-564): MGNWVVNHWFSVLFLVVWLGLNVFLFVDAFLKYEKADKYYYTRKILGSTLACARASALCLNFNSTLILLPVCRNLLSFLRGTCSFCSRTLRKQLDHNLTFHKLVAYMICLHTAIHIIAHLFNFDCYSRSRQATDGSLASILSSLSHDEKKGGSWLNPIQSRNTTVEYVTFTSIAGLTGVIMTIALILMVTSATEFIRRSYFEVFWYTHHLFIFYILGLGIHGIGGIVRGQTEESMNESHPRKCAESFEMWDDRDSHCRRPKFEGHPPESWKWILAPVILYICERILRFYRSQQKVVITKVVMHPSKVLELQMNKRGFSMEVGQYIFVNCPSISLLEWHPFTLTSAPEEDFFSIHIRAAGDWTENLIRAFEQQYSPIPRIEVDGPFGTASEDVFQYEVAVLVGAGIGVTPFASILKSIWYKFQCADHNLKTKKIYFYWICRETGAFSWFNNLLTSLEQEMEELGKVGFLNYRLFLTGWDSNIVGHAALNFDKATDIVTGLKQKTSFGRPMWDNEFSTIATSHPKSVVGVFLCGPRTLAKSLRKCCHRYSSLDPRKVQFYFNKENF
T1 sequence (P13498 1-195 partner): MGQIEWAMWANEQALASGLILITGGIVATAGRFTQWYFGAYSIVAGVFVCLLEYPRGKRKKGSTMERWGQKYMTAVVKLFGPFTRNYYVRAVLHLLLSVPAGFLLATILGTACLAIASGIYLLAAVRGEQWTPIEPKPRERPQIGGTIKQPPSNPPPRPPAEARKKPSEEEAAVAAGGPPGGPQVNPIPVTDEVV

beta cells [8] = assay: Quantified microscopy of YO-PRO-1 stained cells after PIC; type: cell-based; details: C1 100 nM, ML171 10 μM
Protocol: (§2) Loss of beta cell viability in response to inflammatory cytokines was assessed by measurement of caspase 3 activation and quantified microscopy. […] Measured by pro-caspase 3 cleavage (A) or quantified microscopy of YO-PRO-1 stained cells (B). […] Shown are RFU from fluorescent capase3 substrate, ##p<0.01 relative to control; *p<0.05; **p<0.01 relative to PIC (A) and Microscopic apoptotic index ###p<0.001 relative to control; ***p<0.001; **p<0.01 relative to PIC (B).

beta cells [9] = assay: Pro-caspase 3 cleavage after PIC, beta cell survival; type: cell-based; details: C1 100 nM, ML171 10 μM
Protocol: as §2

Cc1c2c(=O)n(-c3ccccc3)[nH]c2cc(=O)n1Cc1ccccc1 [C2, 5-Benzyl-4-methyl-2-phenyl-1H-pyrazolo[4,3-c]pyridine-3,6(2H,5H)-dione]
inflammatory cytokine-induced gene expression (NOX-1 and MCP-1) [1]: dose-related inhibition | glucose-stimulated-insulin-secretion response with PIC (beta cells [2]): preserved

Cc1c2c(=O)n(-c3ccccc3Cl)[nH]c2cc(=O)n1Cc1ccccn1 [GKT-136901]
tolerability [3]: well tolerated

Cc1c2c(=O)n(-c3ccccc3)[nH]c2cc(=O)n1Cc1ccccn1 [NCTT-1]
induction of gene IFNγ by PIC [4]: attenuated | induction of gene IL-12 p35 by PIC [4]: attenuated | induction of gene IL-12p40 by PIC [4]: attenuated | induction of gene MCP-1 by PIC [4]: attenuated | induction of gene NOX-1 by PIC [5]: attenuated | cytokine-induced MCP-1 expression [6]: attenuated cytokine-induced MCP-1 expression

Cc1cccc(/C=N/Nc2cc(N3CCOCC3)nc(OCCc3ccccn3)n2)c1 [STA 5326, 6-morpholino-N-((E)-m-tolylmethyleneamino)-2-(2-(2-pyridyl)ethoxy)pyrimidin-4-amine]
interleukin-12 and interleukin-23 production [7]: inhibits interleukin-12 and interleukin-23 production | induction of NOX-1 gene expression by inflammatory cytokines ([1]; 1 μM): inhibited

COc1cc(C(C)=O)ccc1O [apocynin]
selectivity among NOX isotypes (in words) (NOX-1): non-selective

c1ccc2c(c1)[I+]c1ccccc1-2 [diphenylene iodonium]
selectivity among NOX isotypes (in words) (NOX-1): non-selective

Methyl-2-phenyl-5-(2-pyridinylmethyl)-1H-pyrazolo[4,3-c]pyridine-3,6(2H,5H)-dione [C1]
inflammatory cytokine-induced cell death, YO-PRO-1 microscopic apoptotic index (beta cells [8]): significantly protected | inflammatory cytokine-induced cell death, pro-caspase 3 cleavage (beta cells [9]): significantly protected | inflammatory cytokine-induced gene expression (NOX-1 and MCP-1) [1]: dose-related inhibition | glucose-stimulated-insulin-secretion response with PIC (beta cells [2]): preserved
